The results in this text go back to PubChem BioAssay (NCI).

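1) Cells in 96-well plates. 2) Compound, 48 h, 5 concentrations. 3) Linear interpolation between surrounding doses. 4) Unreached endpoint = highest concentration. GI50: concentration for 50% inhibition of growth. Definition used: TGI = concentration required for complete inhibition of growth.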

Among the test systems are HCC-2998 colon; NCI-H522 lung; HOP-62 NSCLC; HCT-15 colon; A549 NSCLC; MDA-MB-435; SN12C renal; MALME-3M melanoma; SK-MEL-2 melanoma; U251 CNS.
Common to all, as to assay: growth of human tumour cells (NCI), 48 h

On to `Cc1ccnc2c(NC(C)CCCN)cc(O)c(O)c12` (stereo not given), for which the GI50 with HCC-2998 colon was 7.83 µM; in the assay on NCI-H522 lung it was 2.14 µM; in the assay on HOP-62 NSCLC, 26.1 µM; with HCT-15 colon, 27 µM; in the assay on A549 NSCLC, 20.7 µM; with MDA-MB-435, 22.3 µM. Moreover, the GI50 in the assay with SN12C renal was 2.86 µM; in the assay on MALME-3M melanoma, 19.4 µM; with SK-MEL-2 melanoma it was more than 100 µM; with U251 CNS, 9.43 µM. The TGI in the assay on HCC-2998 colon was 32 µM; with NCI-H522 lung, 9.44 µM; in the assay on HOP-62 NSCLC it was more than 100 µM; with HCT-15 colon, more than 100 µM; in the assay on A549 NSCLC, 75 µM; in the assay with MDA-MB-435 it was 50.6 µM. For the same compound, the TGI was 13 µM in the assay on SN12C renal, 52.9 µM in the assay with MALME-3M melanoma, more than 100 µM in the assay with SK-MEL-2 melanoma and 22.8 µM with U251 CNS.

`COc1cc2c3c(n(CCN4CCOCC4)c(=O)c2cc1OC)-c1ccccc1C3=O`: the GI50 in the assay on HCC-2998 colon was 33.8 µM; in the assay with NCI-H522 lung it was 21.2 µM; in the assay on HOP-62 NSCLC, 89.4 µM; in the assay on HCT-15 colon it was more than 100 µM; in the assay with A549 NSCLC it was more than 100 µM; with MDA-MB-435, more than 100 µM. Moreover, the GI50 with SN12C renal was more than 100 µM; with MALME-3M melanoma, more than 100 µM; in the assay on SK-MEL-2 melanoma, more than 100 µM; in the assay with U251 CNS it was 62.3 µM. For the same compound, the TGI in the assay with HCC-2998 colon, in the assay on NCI-H522 lung, with HOP-62 NSCLC, in the assay on HCT-15 colon, in the assay with A549 NSCLC and in the assay on MDA-MB-435 was more than 100 µM in each case. The TGI in the assay on SN12C renal, with MALME-3M melanoma, in the assay with SK-MEL-2 melanoma and in the assay with U251 CNS was more than 100 µM throughout.

Take `OC(CN1CCCC2CCCCC21)c1cc2ccccc2c2ccccc12` (stereo not given): the GI50 in the assay on HCC-2998 colon is 1.78 µM; in the assay on NCI-H522 lung it was 1.45 µM; in the assay on HOP-62 NSCLC, 1.84 µM; in the assay with HCT-15 colon it was 2.15 µM; in the assay with A549 NSCLC, 4.65 µM; with MDA-MB-435, 2.02 µM. For the same compound, the GI50 in the assay with SN12C renal was 3.38 µM; in the assay on MALME-3M melanoma, 1.53 µM; in the assay on SK-MEL-2 melanoma it was 1.67 µM; with U251 CNS, 1.85 µM. Also, the TGI in the assay with HCC-2998 colon came out at 3.9 µM; in the assay on NCI-H522 lung it was 3.06 µM; in the assay on HOP-62 NSCLC it was 3.91 µM; in the assay with HCT-15 colon, 9.23 µM; in the assay with A549 NSCLC it was 19.1 µM; in the assay with MDA-MB-435, 5.06 µM. For the same compound, the TGI turned out to be 13.4 µM in the assay with SN12C renal, 3.45 µM in the assay on MALME-3M melanoma, 3.31 µM in the assay with SK-MEL-2 melanoma and 3.77 µM with U251 CNS.

In the case of `O=C(NCc1ccco1)C1CCN(S(=O)(=O)c2ccc(Cl)cc2)CC1`, the GI50 with HCC-2998 colon was more than 100 µM; in the assay on NCI-H522 lung, 90.5 µM; in the assay on HOP-62 NSCLC it was more than 100 µM; with HCT-15 colon, 39.6 µM; in the assay on A549 NSCLC, 78.3 µM; with MDA-MB-435, 35.4 µM. Besides, the GI50 in the assay with SN12C renal, in the assay with MALME-3M melanoma, in the assay with SK-MEL-2 melanoma and with U251 CNS was more than 100 µM throughout. Further, the TGI with HCC-2998 colon, with NCI-H522 lung, in the assay with HOP-62 NSCLC, with HCT-15 colon, with A549 NSCLC and with MDA-MB-435 was more than 100 µM in each case. For the same compound, the TGI in the assay with SN12C renal, in the assay with MALME-3M melanoma, in the assay with SK-MEL-2 melanoma and in the assay on U251 CNS was more than 100 µM throughout.

As to `COc1cccc(N2CCN(c3ncnc4cc[nH]c34)CC2)c1`, the GI50 in the assay on HCC-2998 colon is 7.19 µM; with NCI-H522 lung it was 8.78 µM; with HOP-62 NSCLC, 17.8 µM; with HCT-15 colon, 24.4 µM; in the assay with A549 NSCLC it was 12.2 µM; in the assay on MDA-MB-435 it was 2.73 µM. The GI50 is 32.6 µM in the assay with SN12C renal, 10 µM in the assay on MALME-3M melanoma, 10.3 µM with SK-MEL-2 melanoma and 12.7 µM in the assay on U251 CNS. The TGI with HCC-2998 colon is more than 100 µM; in the assay on NCI-H522 lung it was 64.1 µM; in the assay on HOP-62 NSCLC it was more than 100 µM; in the assay with HCT-15 colon, more than 100 µM; with A549 NSCLC it was more than 100 µM; in the assay on MDA-MB-435, 19 µM. In addition, the TGI in the assay with SN12C renal is more than 100 µM; in the assay on MALME-3M melanoma it was 55.3 µM; in the assay on SK-MEL-2 melanoma it was 50.9 µM; with U251 CNS, more than 100 µM.

Turning to `CC1=NN(c2cccc(Cl)c2)C(=O)/C1=C\C=C\c1ccccc1`, the GI50 was 1.91 µM in the assay on HCC-2998 colon; 2.63 µM in the assay on NCI-H522 lung; 3.18 µM in the assay with HOP-62 NSCLC; 2.27 µM in the assay with HCT-15 colon; 16.4 µM with A549 NSCLC; 2.5 µM in the assay on MDA-MB-435. The GI50 with SN12C renal was 2.44 µM; in the assay on MALME-3M melanoma, 2.76 µM; in the assay on SK-MEL-2 melanoma, 3.85 µM; with U251 CNS it was 1.78 µM. For the same compound, the TGI with HCC-2998 colon is 3.45 µM; in the assay on NCI-H522 lung, 6.84 µM; in the assay on HOP-62 NSCLC it was 11.1 µM; in the assay on HCT-15 colon, 5.68 µM; in the assay with A549 NSCLC, more than 100 µM; in the assay with MDA-MB-435 it was 7.37 µM. For the same compound, the TGI was 7.53 µM with SN12C renal, 9.19 µM in the assay with MALME-3M melanoma, 16.7 µM in the assay with SK-MEL-2 melanoma and 4.42 µM in the assay with U251 CNS.

Consider `COC(=O)c1c2c(c(C)[n+]([O-])c1C)C(=O)C(NCc1ccc(F)cc1)=CC2=O`, for which the GI50 with HCC-2998 colon was 1.79 µM; in the assay on NCI-H522 lung, 1.7 µM; in the assay with HOP-62 NSCLC it was 2.4 µM; in the assay on HCT-15 colon, 1.23 µM; in the assay on A549 NSCLC, 1.79 µM; in the assay with MDA-MB-435, 0.582 µM. The GI50 in the assay with SN12C renal was 1.17 µM; in the assay with MALME-3M melanoma, 0.187 µM; in the assay with SK-MEL-2 melanoma, 1.75 µM; in the assay with U251 CNS it was 1.81 µM. The TGI in the assay with HCC-2998 colon was found to be 4.57 µM; in the assay with NCI-H522 lung, 4.02 µM; in the assay with HOP-62 NSCLC, 22.5 µM; with HCT-15 colon it was 3 µM; in the assay with A549 NSCLC it was 5.66 µM; in the assay on MDA-MB-435 it was 1.84 µM. In addition, the TGI came to 2.62 µM with SN12C renal, 0.493 µM with MALME-3M melanoma, 4.03 µM in the assay with SK-MEL-2 melanoma and 5.14 µM in the assay with U251 CNS.
